The record followed here is patent US8293764B2, “Compositions and methods for disruption of BRCA2-Rad51 interaction” (The Regents of the University of California, priority 2004, dated 2012).

Peptide text beside a SMILES is read from it. * marks the point of attachment. Cbz = O=C(OCc1ccccc1)*

The test system of the assay is Rad51 in MCF-7 cells. As to the kind of experiment: Rad51 stability assay with cyclohexamide. The format is cell-based. To be noted: 1 μM MG132, IBR2 treated and control cells. The text has this:
To examine the impact of IBR2 on Rad51 protein expression, IBR2 treated MCF-7 cells was examined by straight western blot probed with a panel of antibodies against BRCA2, Rad51, Rad50, p84 and Rb. […] Consistent with our FACS analysis (FIG. 4A), the hypo-phosphorylated form of Rb, a marker for G1 phase, was the major form observed in the later time points, further confirming that IBR2 arrests cells at G1 phase (FIG. 4A). It has been reported that BRCA2 level is cell cycle dependent, which expresses low in G1 phase and peaks at G1/S boundary. Therefore the decreased level of BRCA2 in IBR2 treated cells may be due to G1 phase arrest. Different from BRCA2 protein, Rad51 protein is expressed constant throughout the cell cycle in MCF-7 cells (data not shown). Therefore, loss of Rad51 protein may be the direct effect of IBR2 treatment instead of the consequence of G1 arrest. […]
Western blot analysis: Cells were treated with […] or 50 μg/ml cycloheximide (CHX) or 1 μM MG132 and harvested at different time points for western blot analysis. […] The intensity of bands was quantified by densitometry using Labworks 4.5 software. The relative value of the band intensity was calculated with respect to that of untreated sample after normalization with the p84 signal.

On to `CC(C)C[C@@H](C=O)NC(=O)[C@H](CC(C)C)NC(=O)[C@H](CC(C)C)NC(=O)OCc1ccccc1` [MG132, reference compound] (Cbz-Leu-Leu-Leu-aldehyde), for which the “half-life of Rad51 with addition of MG132” value was “prolonged”.
